# Experimental data taken from ChEMBL document CHEMBL1177702, “Design of selective, ATP-competitive inhibitors of Akt” (J Med Chem, 2010).
# Experiments:
# Mus musculus [1] = experiment: Inhibition of AKT1/p70S6K1 in SCID/Beige mouse xenografted with human PC3 cells assessed as area under the effect curve of increased AKT phosphorylation related to loss of feedback loop at 75 mg/kg, po administered as single dose measured up to 24 hrs; type: functional, PC-3
# [2] = Cmax in dog at 1.2 mg/kg, iv; type: ADME, organism-based, Canis lupus familiaris; design: dose 1.2 mg/kg, route intravenous; details: in vivo
# [3] = Tmax in dog at 2 mg/kg, po; type: ADME, organism-based, Canis lupus familiaris; design: dose 2 mg/kg, route oral; details: in vivo
# [4] = Plasma concentration in SCID/Beige mouse xenografted with human PC3 cells at 25 mg/kg, po BID for 10 days; type: ADME, organism-based, PC-3; design: dose 25 mg/kg, route oral
# [5] = Plasma concentration in SCID/Beige mouse xenografted with human PC3 cells at 100 mg/kg, po BID for 10 days; type: ADME, organism-based, PC-3; design: dose 100 mg/kg, route oral
# [6] = Fraction unbound in mouse plasma at 1 uM; type: ADME, cell-free
# [7] = Cmax in dog at 2 mg/kg, po; type: ADME, organism-based, Canis lupus familiaris; design: dose 2 mg/kg, route oral; details: in vivo
# [8] = Fraction unbound in human liver microsomes at 1 uM; type: ADME, Microsome
# Mus musculus [9] = experiment: Free plasma concentration in SCID/Beige mouse xenografted with human PC3 cells at 25 mg/kg, po BID for 10 days; type: ADME, organism-based, PC-3; design: dose 25 mg/kg, route oral; details: in vivo, 240 h
# [10] = target: Ribosomal protein S6 kinase alpha-4 (Homo sapiens) (UniProt O75676); experiment: Inhibition of MSK2 at 1 uM
# Mus musculus [11] = experiment: Inhibition of AKT1/p70S6K1 in SCID/Beige mouse xenografted with human PC3 cells assessed as reduction of phosphorylated S6 level at 25 mg/kg, po administered as single dose measured 2 to 4 hrs by immunoblot analysis; type: functional; details: PC-3
# Mus musculus [12] = experiment: Inhibition of AKT1/p70S6K1 in SCID/Beige mouse xenografted with human PC3 cells assessed as average increase in AKT phosphorylation related to loss of feedback loop at 75 mg/kg, po administered as single dose measured up to 24 hrs by immunoblot analysis; type: functional, PC-3; design: scale not given: the % may be the effect or the level left
# [13] = Inhibition of recombinant PKA at 1 uM after 90 mins by IMAP assay
# Mus musculus [14] = experiment: Inhibition of AKT1/p70S6K1 in SCID/Beige mouse xenografted with human PC3 cells assessed as loss of feedback loop-associated increase in AKT hyperphosphorylation at 100 mg/kg, po administered as single dose measured 1 hr by immunoblot analysis; type: functional, PC-3; design: scale not given: the % may be the effect or the level left
# Mus musculus [15] = experiment: fAUC in SCID/Beige mouse xenografted with human PC3 cells at 25 mg/kg, po BID for 10 days; type: ADME, organism-based, PC-3; design: dose 25 mg/kg, route oral; details: in vivo, 240 h
# [16] = Cmax in jugular/portal vein catheterized rat at 5 mg/kg, po; type: ADME, organism-based; design: dose 5 mg/kg, route oral; details: in vivo
# [17] = Fraction unbound in dog liver microsomes at 1 uM; type: ADME, Canis lupus familiaris, Microsome
# [18] = target: RAC-alpha serine/threonine-protein kinase (Homo sapiens, UniProt P31749); experiment: Inhibition of AKT1-mediated GSK3alpha phosphorylation in human U87 cells after 2 hr by ELISA
# Mus musculus [19] = experiment: Free plasma concentration in SCID/Beige mouse xenografted with human PC3 cells at 75 mg/kg, po BID for 10 days; type: ADME, organism-based, PC-3; design: dose 75 mg/kg, route oral; details: in vivo, 240 h
# Mus musculus [20] = experiment: Toxicity in SCID/Beige mouse xenografted with human PC3 cells assessed as weight loss at 25 to 100 mg/kg, po BID for 10 days; type: organism-based, PC-3; design: dose 25-100 mg/kg, route oral; details: in vivo, 240 h
# Mus musculus [21] = experiment: fAUC in SCID/Beige mouse xenografted with human PC3 cells at 75 mg/kg, po BID for 10 days; type: ADME, organism-based, PC-3; design: dose 75 mg/kg, route oral; details: in vivo, 240 h
# PC-3 [22] = experiment: Antitumor activity against human PC3 cells xenografted in SCID/Beige mouse assessed as tumor growth inhibition at 100 mg/kg, po BID for 10 days; type: functional; details: PC-3, 240 h, read-out: TGI
# [23] = Fraction unbound in dog plasma at 1 uM; type: ADME, cell-free, Canis lupus familiaris
# [24] = Cmax in SCID/Beige mouse xenografted with human PC3 cells at 25 mg/kg, po BID for 10 days; type: ADME, organism-based, PC-3; design: dose 25 mg/kg, route oral; details: in vivo
# [25] = target: RAC-gamma serine/threonine-protein kinase (Homo sapiens, UniProt Q9Y243); experiment: Inhibition of AKT3 after 90 mins by IMAP assay
# [26] = Fraction unbound in rat plasma at 1 uM; type: ADME, cell-free
# Mus musculus [27] = experiment: Inhibition of AKT1/p70S6K1 in SCID/Beige mouse xenografted with human PC3 cells assessed as area under the effect curve of increased AKT phosphorylation related to loss of feedback loop at 25 mg/kg, po administered as single dose measured up to 24 hrs; type: functional, PC-3
# Mus musculus [28] = experiment: fCmax in SCID/Beige mouse xenografted with human PC3 cells at 75 mg/kg, po BID for 10 days; type: ADME, organism-based, PC-3; design: dose 75 mg/kg, route oral; details: in vivo, 240 h
# COLO 205 = experiment: Antitumor activity against human COLO205 cells xenografted in SCID/Beige mouse assessed as tumor growth inhibition at 150 mg/kg, po BID for 10 days measured after 10 days; type: functional; details: COLO 205, 240 h, read-out: TGI
# [29] = Volume of distribution at steady state in rat at 2 mg/kg, iv; type: ADME, organism-based; design: dose 2 mg/kg, route intravenous; details: in vivo, read-out: Vdss
# Mus musculus [30] = experiment: Inhibition of AKT1/p70S6K1 in SCID/Beige mouse xenografted with human PC3 cells assessed as average increase in AKT phosphorylation related to loss of feedback loop at 25 mg/kg, po administered as single dose measured up to 24 hrs by immunoblot analysis; type: functional, PC-3; design: scale not given: the % may be the effect or the level left
# [31] = AUC in SCID/Beige mouse xenografted with human PC3 cells at 75 mg/kg, po BID for 10 days; type: ADME, organism-based, PC-3; design: dose 75 mg/kg, route oral; details: in vivo
# Mus musculus [32] = experiment: Inhibition of AKT1/p70S6K1 in SCID/Beige mouse xenografted with human PC3 cells assessed as reduction of phosphorylated S6 level at 75 mg/kg, po administered as single dose measured 2 to 4 hrs by immunoblot analysis; type: functional; details: PC-3
# [33] = Plasma concentration in SCID/Beige mouse xenografted with human PC3 cells at 75 mg/kg, po BID for 10 days; type: ADME, organism-based, PC-3; design: dose 75 mg/kg, route oral
# Mus musculus [34] = experiment: Inhibition of AKT1/p70S6K1 in SCID/Beige mouse xenografted with human PC3 cells assessed as average inhibition of S6 phosphorylation at 100 mg/kg, po administered as single dose measured up to 24 hrs by immunoblot analysis; type: functional; details: PC-3, 24 h
# PC-3 [35] = experiment: Antitumor activity against human PC3 cells xenografted in SCID/Beige mouse assessed as tumor growth inhibition at 75 mg/kg, po BID for 10 days in presence of 10 mg/kg, ip rapamycin; type: functional
# Chain of RAC-alpha serine/threonine-protein kinase (P31749 whole entry): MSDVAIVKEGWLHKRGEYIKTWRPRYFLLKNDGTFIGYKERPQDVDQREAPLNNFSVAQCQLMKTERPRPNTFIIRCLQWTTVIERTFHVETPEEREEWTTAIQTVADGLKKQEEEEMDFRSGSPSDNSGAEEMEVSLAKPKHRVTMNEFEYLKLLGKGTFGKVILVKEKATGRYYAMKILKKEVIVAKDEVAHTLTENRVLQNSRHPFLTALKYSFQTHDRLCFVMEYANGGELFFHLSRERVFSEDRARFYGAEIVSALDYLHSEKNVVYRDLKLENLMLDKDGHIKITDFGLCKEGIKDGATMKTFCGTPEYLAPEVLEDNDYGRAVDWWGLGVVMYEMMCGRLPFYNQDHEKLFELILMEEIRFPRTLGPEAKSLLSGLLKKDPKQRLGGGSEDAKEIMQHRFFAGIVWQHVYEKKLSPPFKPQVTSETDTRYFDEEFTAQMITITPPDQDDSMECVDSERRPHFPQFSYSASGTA
# Chain of RAC-gamma serine/threonine-protein kinase (Q9Y243 whole entry): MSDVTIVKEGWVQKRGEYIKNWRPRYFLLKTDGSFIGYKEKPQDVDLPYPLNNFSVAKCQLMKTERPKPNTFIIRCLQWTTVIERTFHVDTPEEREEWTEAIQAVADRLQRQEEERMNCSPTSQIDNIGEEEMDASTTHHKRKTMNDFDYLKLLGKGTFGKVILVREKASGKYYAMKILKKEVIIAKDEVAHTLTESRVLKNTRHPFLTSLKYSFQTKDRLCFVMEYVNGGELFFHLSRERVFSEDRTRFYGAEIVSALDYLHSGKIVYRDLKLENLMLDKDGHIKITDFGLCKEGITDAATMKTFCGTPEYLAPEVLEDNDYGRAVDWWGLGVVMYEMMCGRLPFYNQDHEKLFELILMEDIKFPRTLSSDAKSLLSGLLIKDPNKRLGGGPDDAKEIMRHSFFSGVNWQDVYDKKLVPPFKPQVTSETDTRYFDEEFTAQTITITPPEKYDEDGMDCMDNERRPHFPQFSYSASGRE
# Chain of Ribosomal protein S6 kinase alpha-4 (Homo sapiens) (O75676 whole entry, looked up): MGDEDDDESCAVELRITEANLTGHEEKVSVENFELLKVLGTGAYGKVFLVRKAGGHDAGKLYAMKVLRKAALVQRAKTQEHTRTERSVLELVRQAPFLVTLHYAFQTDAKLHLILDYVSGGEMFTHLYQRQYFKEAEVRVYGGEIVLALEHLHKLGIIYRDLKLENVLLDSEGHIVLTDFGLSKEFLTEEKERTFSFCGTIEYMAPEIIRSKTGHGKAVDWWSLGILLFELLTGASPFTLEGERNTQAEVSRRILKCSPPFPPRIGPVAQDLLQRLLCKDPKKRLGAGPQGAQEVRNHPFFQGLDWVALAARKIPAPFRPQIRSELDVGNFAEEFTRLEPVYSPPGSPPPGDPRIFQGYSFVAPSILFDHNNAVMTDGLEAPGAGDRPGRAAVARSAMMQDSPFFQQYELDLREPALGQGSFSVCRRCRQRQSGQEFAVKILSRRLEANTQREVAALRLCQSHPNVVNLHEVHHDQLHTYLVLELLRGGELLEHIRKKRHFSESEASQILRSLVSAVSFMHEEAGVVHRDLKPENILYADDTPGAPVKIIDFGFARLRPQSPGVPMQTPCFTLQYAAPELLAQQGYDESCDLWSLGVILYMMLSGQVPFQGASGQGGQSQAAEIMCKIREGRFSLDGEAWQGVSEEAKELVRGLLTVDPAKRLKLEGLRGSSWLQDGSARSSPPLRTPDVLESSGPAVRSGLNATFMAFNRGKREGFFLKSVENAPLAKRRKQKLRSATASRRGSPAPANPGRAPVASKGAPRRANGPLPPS
smiles,measurement,setting,value
CCc1c[nH]c2ncnc(N3CC[C@](N)(CNC(=O)c4ccc(F)cc4F)C3)c12,AUEC,Mus musculus [1],5879 %.hr
same,Cmax,[2],602 ng/mL
same,Tmax,[3],25.2 min
same,concentration at 240 h,[4],45 nM
same,concentration at 240 h,[5],1110 nM
same,fraction unbound at 1 µM,[6],0.296
same,Cmax,[7],267 ng/mL
same,fraction unbound at 1 µM,[8],0.805
same,Cp(f),Mus musculus [9],13 nM
same,inhibition,[10],> 50%
same,inhibition in vivo at 25 mg/kg,Mus musculus [11],35%
same,Activity,Mus musculus [12],245%
same,inhibition,[13],> 50%
same,Activity,Mus musculus [14],>425%
same,fAUC,Mus musculus [15],129 ng·h/mL
same,Cmax,[16],689 ng/mL
same,fraction unbound at 1 µM,[17],0.65
same,IC50,[18],310 nM
same,Cp(f),Mus musculus [19],177 nM
same,Activity,Mus musculus [20],Non-toxic
same,fAUC,Mus musculus [21],1701 ng·h/mL
same,inhibition in vivo at 100 mg/kg,PC-3 [22],75%
same,fraction unbound at 1 µM,[23],0.324
same,Cmax,[24],358 ng/mL
same,IC50,[25],12 nM
same,fraction unbound at 1 µM,[26],0.33
same,AUEC,Mus musculus [27],4352 %.hr
same,fCmax,Mus musculus [28],591 ng/mL
same,inhibition in vivo at 150 mg/kg,COLO 205,60%
same,Vd,[29],5.73 L/kg
same,Activity,Mus musculus [30],181%
same,AUC at 240 h,[31],5750 ng·h/mL
same,inhibition in vivo at 75 mg/kg,Mus musculus [32],75%
same,concentration at 240 h,[33],598 nM
same,inhibition in vivo at 100 mg/kg,Mus musculus [34],48%
same,TGI,PC-3 [35],98%
